Test results from US4347176A, “Compounds and methods of making same” (Burroughs Wellcome Co., priority 1980, dated 1982).

Assays:
[1] = test system: antisera raised by presenting a suitable bupropion variant-carrier material conjugate to the immune system of host animals; assay: competition of bupropion with radiolabeled competitor for binding to antisera; set-up: species or system rabbit
Protocol: (§1) Samples of six standard solutions of bupropion in blank plasma having concentrations of 0.39 to 50 ng/ml) are pipetted (0.1 ml each) in duplicate into 12×75 mm plastic tubes. Duplicate non-specific binding (no antibody) and maximum binding tubes (no unlabeled bupropion) receive 0.1 ml blank plasma. Spiked plasma controls at several concentrations of (e.g., 1.0, 10.0, and 100 ng/ml) and plasma samples for assay (diluted into the standard range with blank plasma if necessary) are assayed in duplicate. After being placed in an ice bath, all tubes receive (in order) 0.2 ml ^3 H bupropion (416 pg. containing approximately 10^4 cpm) and 0.7 ml anti-bupropion serum (raised to a ring-functionalized immunogen according to the present invention) (at pre-determined dilutions such that approximately 40% of the ^3 H bupropion added is bound), both in assay buffer (0.05 M phosphate-bufferedisotonic saline, containing 0.01 M EDTA and 0.1% gelatin, pH 7.0). […] The supernatants, containing antibody-bound ^3 H bupropion are carefully decanted into liquid scintillation cocktail for quantitation of ^3 H. After counts (minus average nonspecific binding cpm) are expressed as percentages of average maximum binding cpm, bupropion concentrations in plasma samples and spiked controls are read from a standard curve (log concentration vs percent average maximum binding).

anti-compound 1 sera = assay: RIA of bupropion using 125I-labeled competitor with anti-compound 1 sera: sensitivity; format: binding, rabbit (preferred host animal); conditions: in conjunction with anti-compound 1 sera; compared with the other iodinated competitors, FIG. 2
Protocol: as §1, with “binding). […]” for “binding).”

[2] = test system: anti-compound 2 sera, and anti-compound 3 sera; assay: RIA of bupropion using 125I-labeled competitors with anti-compound 2 sera and anti-compound 3 sera: sensitivity; format: binding, rabbit (preferred host animal); conditions: with either anti-compound 2 or anti-compound 3 sera; standard curves, FIG. 2
Protocol: as §1, with “7.0). Non-specific binding tubes receive 0.7 ml assay buffer.) Following incubation either at 25° C. for 2 hours or overnight at 4° C., bound and free ^3 H bupropion are separated by incubation for 10 min at 0° C. with 0.5 ml ice-cold dextran-coated charcoal solution (0.25% dextran, 5 mg/ml charcoal, in assay buffer) followed by centrifugation for 10 minutes at 4° C.” for “7.0).”
RIA's have been run according to the method of Example X utilizing ^125 I labeled bupropion competitors of the present invention in conjunction with antisera obtained following immunization with immunogens of the present invention. […] Following the ethanol precipitation of antibody-bound ^125 I-bupropion competitor at equilibrium, ^125 I in the protein pellets was quantified.

SMILES	RIA sensitivity relative to the compound 10 (3H bupropion) assay system [2]	other results
CC(NC(C)(C)C)C(=O)c1cccc(Cl)c1 (racemic) [bupropion, (±)-2-tert-butylamino-3'-chloropropiophenone]		competition with radiolabeled bupropion or competitor for binding to antisera [1]: successfully compete
CC(NC(C)(C)C)C(=NOCC(=O)NCCc1ccc(O)c([125I])c1)c1cccc(Cl)c1 (stereo not drawn) [Compound 6, α-t-Butylamino-3-chloropropiophenone-carboxymethyloxime-^125 I-tyramine amide]		RIA sensitivity (anti-compound 1 sera): least sensitive RIA
CC(NC(C)(C)C)C(=O)c1ccc(OCC(=O)NCCc2ccc(O)c([125I])c2)c(Cl)c1 (stereo not drawn) [Compound 7, α-t-Butylamino-3-chloro-4-carbomethoxypropiophenone-^125 I-tyramine amide]	sensitivity approximately equal	
CC(NC(C)(C)C)C(=O)c1ccc(CCCOC(=O)CCC(=O)NCCc2ccc(O)c([125I])c2)c(Cl)c1 (stereo not drawn) [Compound 8, α-t-butylamino-3-chloro-4-γ-hydroxypropylpropiophenonehemisuccinate-^125 I-tyramine amide]	sensitivity approximately equal	
CC(NC(C)(C)C)C(=O)c1ccc(O)c([125I])c1 (stereo not drawn) [Compound 9, ^125 I-α-t-Butylamino-3-iodo-4-hydroxypropiophenone]	approximately ten times more sensitive	
